Laboratory results taken from patent publication US10550111B2, “Pyrimidine urea compound containing isoxazolines and use thereof” (SHENYANG SINOCHEM AGROCHEMICALS R&D CO., LTD, priority 2014, dated 2020).

Legend:
Type in all cases: in vivo
[1] = system: Abutilon theophrasti Medic.; test: Bioassay of herbicidal activity in greenhouse (further screening)
Outline: (§1)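 Pre- and post-emergence greenhouse test. Track sprayer, 500 L/hm^2, 1.95 kg/cm^2; EC formulation. Post-em at 2–3 leaves (grass), 2–4 leaves (broad-leaf). Readout: visual % inhibition.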

[2] = system: Echinochloa crus-galli (L.) Beauv.; test: as above
Outline: as §1

[3] = system: Setaria glauca (L.) Beauv.; test: as above
Outline: as §1

Zinnia elegans Jacq. = test: as above
Outline: as §1

[4] = system: broad-leaf weeds and grass weeds; test: General screening of herbicidal activity in greenhouse; conditions: 1000 g a.i./hm^2;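 also: 0 means no visible effect and 100 means all weeds dead or not emerged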
Outline: as §1

maize = test: Crop safety study in greenhouse; conditions: 7.5-37.5 g a.i./hm^2; pre-emergence and post-emergence application
Description: (§2) Seeds of soybean, cotton, maize, wheat and rice were sown in nutrition soil in paper pot (9 cm diameter), covered with soil in 1 cm and grown in the greenhouse under good growth conditions (temperature, atmospheric humidity, water supply). The compounds of the present invention as emulsifiable concentrate, were applied in pre-emergence and post-emergence treatment by track sprayer (Engineer Research Ltd., pressure 1.95 kg/cm^2, volume 500 L/hm^2, track speed 1.48 km/h). Pre-emergence treatment was conducted after seeding 24 hours and post-emergence treatment was done when the respective weeds reached predetermined leaf stage (soybean and cotton at 2- to 4-leaf stage and maize, wheat and rice at 3-leaf stage), the state of growth of the respective crops were visually observed to determine the safety in accordance with the following evaluation standard.
(§3) Safety rating scale (%): 0 means no damage to crops; 100 means to kill crops completely.

rice = test: Crop safety study in greenhouse; conditions: 7.5-37.5 g a.i./hm^2; pre-emergence and post-emergence application
Description: as §2, §3

wheat = test: Crop safety study in greenhouse; conditions: 7.5-37.5 g a.i./hm^2; pre-emergence and post-emergence application
Description: as §2, §3

Cn1c(C(F)(F)F)cc(=O)n(-c2cc(C3=NOC(C)(COC(=O)COc4ccc(Cl)cc4Cl)C3)c(Cl)cc2F)c1=O (stereo not shown) [Compound 83]
Growth inhibition rate, Post-emergence treatment, Abutilon theophrasti Medic. ([1]; dose 7.5 g a.i./hm^2): 65%
Growth inhibition rate, Post-emergence treatment, Abutilon theophrasti Medic. ([1]; dose 15 g a.i./hm^2): 98%
Growth inhibition rate, Post-emergence treatment, Abutilon theophrasti Medic. ([1]; dose 37.5 g a.i./hm^2): 100%
Growth inhibition rate, Post-emergence treatment, Abutilon theophrasti Medic. ([1]; dose 150 g a.i./hm^2): 100%
Growth inhibition rate, Post-emergence treatment, Abutilon theophrasti Medic. ([1]; dose 600 g a.i./hm^2): 100%
Growth inhibition rate, Pre-emergence treatment, Abutilon theophrasti Medic. ([1]; dose 7.5 g a.i./hm^2): 0%
Growth inhibition rate, Pre-emergence treatment, Abutilon theophrasti Medic. ([1]; dose 15 g a.i./hm^2): 30%
Growth inhibition rate, Pre-emergence treatment, Abutilon theophrasti Medic. ([1]; dose 37.5 g a.i./hm^2): 50%
Growth inhibition rate, Pre-emergence treatment, Abutilon theophrasti Medic. ([1]; dose 150 g a.i./hm^2): 100%
Growth inhibition rate, Pre-emergence treatment, Abutilon theophrasti Medic. ([1]; dose 600 g a.i./hm^2): 100%
Growth inhibition rate, Post-emergence treatment, Echinochloa crus-galli (L.) Beauv. ([2]; dose 7.5 g a.i./hm^2): 25%
Growth inhibition rate, Post-emergence treatment, Echinochloa crus-galli (L.) Beauv. ([2]; dose 15 g a.i./hm^2): 25%
Growth inhibition rate, Post-emergence treatment, Echinochloa crus-galli (L.) Beauv. ([2]; dose 37.5 g a.i./hm^2): 30%
Growth inhibition rate, Post-emergence treatment, Echinochloa crus-galli (L.) Beauv. ([2]; dose 150 g a.i./hm^2): 45%
Growth inhibition rate, Post-emergence treatment, Echinochloa crus-galli (L.) Beauv. ([2]; dose 600 g a.i./hm^2): 90%
Growth inhibition rate, Pre-emergence treatment, Echinochloa crus-galli (L.) Beauv. ([2]; dose 7.5 g a.i./hm^2): 10%
Growth inhibition rate, Pre-emergence treatment, Echinochloa crus-galli (L.) Beauv. ([2]; dose 15 g a.i./hm^2): 10%
Growth inhibition rate, Pre-emergence treatment, Echinochloa crus-galli (L.) Beauv. ([2]; dose 37.5 g a.i./hm^2): 25%
Growth inhibition rate, Pre-emergence treatment, Echinochloa crus-galli (L.) Beauv. ([2]; dose 150 g a.i./hm^2): 90%
Growth inhibition rate, Pre-emergence treatment, Echinochloa crus-galli (L.) Beauv. ([2]; dose 600 g a.i./hm^2): 100%
Growth inhibition rate, Post-emergence treatment, Setaria glauca (L.) Beauv. ([3]; dose 7.5 g a.i./hm^2): 30%
Growth inhibition rate, Post-emergence treatment, Setaria glauca (L.) Beauv. ([3]; dose 15 g a.i./hm^2): 45%
Growth inhibition rate, Post-emergence treatment, Setaria glauca (L.) Beauv. ([3]; dose 37.5 g a.i./hm^2): 50%
Growth inhibition rate, Post-emergence treatment, Setaria glauca (L.) Beauv. ([3]; dose 150 g a.i./hm^2): 70%
Growth inhibition rate, Post-emergence treatment, Setaria glauca (L.) Beauv. ([3]; dose 600 g a.i./hm^2): 85%
Growth inhibition rate, Pre-emergence treatment, Setaria glauca (L.) Beauv. ([3]; dose 7.5 g a.i./hm^2): 10%
Growth inhibition rate, Pre-emergence treatment, Setaria glauca (L.) Beauv. ([3]; dose 15 g a.i./hm^2): 15%
Growth inhibition rate, Pre-emergence treatment, Setaria glauca (L.) Beauv. ([3]; dose 37.5 g a.i./hm^2): 35%
Growth inhibition rate, Pre-emergence treatment, Setaria glauca (L.) Beauv. ([3]; dose 150 g a.i./hm^2): 80%
Growth inhibition rate, Pre-emergence treatment, Setaria glauca (L.) Beauv. ([3]; dose 600 g a.i./hm^2): 100%
Growth inhibition rate, Post-emergence treatment, Zinnia elegans Jacq. (Zinnia elegans Jacq.; dose 7.5 g a.i./hm^2): 65%
Growth inhibition rate, Post-emergence treatment, Zinnia elegans Jacq. (Zinnia elegans Jacq.; dose 15 g a.i./hm^2): 90%
Growth inhibition rate, Post-emergence treatment, Zinnia elegans Jacq. (Zinnia elegans Jacq.; dose 37.5 g a.i./hm^2): 98%
Growth inhibition rate, Post-emergence treatment, Zinnia elegans Jacq. (Zinnia elegans Jacq.; dose 150 g a.i./hm^2): 100%
Growth inhibition rate, Post-emergence treatment, Zinnia elegans Jacq. (Zinnia elegans Jacq.; dose 600 g a.i./hm^2): 100%
Growth inhibition rate, Pre-emergence treatment, Zinnia elegans Jacq. (Zinnia elegans Jacq.; dose 7.5 g a.i./hm^2): 0%
Growth inhibition rate, Pre-emergence treatment, Zinnia elegans Jacq. (Zinnia elegans Jacq.; dose 15 g a.i./hm^2): 10%
Growth inhibition rate, Pre-emergence treatment, Zinnia elegans Jacq. (Zinnia elegans Jacq.; dose 37.5 g a.i./hm^2): 50%
Growth inhibition rate, Pre-emergence treatment, Zinnia elegans Jacq. (Zinnia elegans Jacq.; dose 150 g a.i./hm^2): 100%
Growth inhibition rate, Pre-emergence treatment, Zinnia elegans Jacq. (Zinnia elegans Jacq.; dose 600 g a.i./hm^2): 100%
pre-emergence and post-emergence herbicidal activity against broad-leaf weeds and grass weeds [4]: good
Crop safety, maize (maize): good safety
Crop safety, rice (rice): good safety
Crop safety, wheat (wheat): good safety

CC(=O)OCC1(C)CC(c2cc(-n3c(=O)cc(C(F)(F)F)n(C)c3=O)c(F)cc2Cl)=NO1 (stereo not shown) [Compound 43]
Growth inhibition rate, Post-emergence treatment, Abutilon theophrasti Medic. ([1]; dose 7.5 g a.i./hm^2): 100%
Growth inhibition rate, Post-emergence treatment, Abutilon theophrasti Medic. ([1]; dose 15 g a.i./hm^2): 100%
Growth inhibition rate, Post-emergence treatment, Abutilon theophrasti Medic. ([1]; dose 37.5 g a.i./hm^2): 100%
Growth inhibition rate, Post-emergence treatment, Abutilon theophrasti Medic. ([1]; dose 150 g a.i./hm^2): 100%
Growth inhibition rate, Post-emergence treatment, Abutilon theophrasti Medic. ([1]; dose 600 g a.i./hm^2): 100%
Growth inhibition rate, Pre-emergence treatment, Abutilon theophrasti Medic. ([1]; dose 7.5 g a.i./hm^2): 100%
Growth inhibition rate, Pre-emergence treatment, Abutilon theophrasti Medic. ([1]; dose 15 g a.i./hm^2): 100%
Growth inhibition rate, Pre-emergence treatment, Abutilon theophrasti Medic. ([1]; dose 37.5 g a.i./hm^2): 100%
Growth inhibition rate, Pre-emergence treatment, Abutilon theophrasti Medic. ([1]; dose 150 g a.i./hm^2): 100%
Growth inhibition rate, Pre-emergence treatment, Abutilon theophrasti Medic. ([1]; dose 600 g a.i./hm^2): 100%
Growth inhibition rate, Post-emergence treatment, Echinochloa crus-galli (L.) Beauv. ([2]; dose 7.5 g a.i./hm^2): 10%
Growth inhibition rate, Post-emergence treatment, Echinochloa crus-galli (L.) Beauv. ([2]; dose 15 g a.i./hm^2): 20%
Growth inhibition rate, Post-emergence treatment, Echinochloa crus-galli (L.) Beauv. ([2]; dose 37.5 g a.i./hm^2): 10%
Growth inhibition rate, Post-emergence treatment, Echinochloa crus-galli (L.) Beauv. ([2]; dose 150 g a.i./hm^2): 90%
Growth inhibition rate, Post-emergence treatment, Echinochloa crus-galli (L.) Beauv. ([2]; dose 600 g a.i./hm^2): 100%
Growth inhibition rate, Pre-emergence treatment, Echinochloa crus-galli (L.) Beauv. ([2]; dose 7.5 g a.i./hm^2): 10%
Growth inhibition rate, Pre-emergence treatment, Echinochloa crus-galli (L.) Beauv. ([2]; dose 15 g a.i./hm^2): 60%
Growth inhibition rate, Pre-emergence treatment, Echinochloa crus-galli (L.) Beauv. ([2]; dose 37.5 g a.i./hm^2): 90%
Growth inhibition rate, Pre-emergence treatment, Echinochloa crus-galli (L.) Beauv. ([2]; dose 150 g a.i./hm^2): 95%
Growth inhibition rate, Pre-emergence treatment, Echinochloa crus-galli (L.) Beauv. ([2]; dose 600 g a.i./hm^2): 100%
Growth inhibition rate, Post-emergence treatment, Setaria glauca (L.) Beauv. ([3]; dose 7.5 g a.i./hm^2): 70%
Growth inhibition rate, Post-emergence treatment, Setaria glauca (L.) Beauv. ([3]; dose 15 g a.i./hm^2): 80%
Growth inhibition rate, Post-emergence treatment, Setaria glauca (L.) Beauv. ([3]; dose 37.5 g a.i./hm^2): 25%
Growth inhibition rate, Post-emergence treatment, Setaria glauca (L.) Beauv. ([3]; dose 150 g a.i./hm^2): 95%
Growth inhibition rate, Post-emergence treatment, Setaria glauca (L.) Beauv. ([3]; dose 600 g a.i./hm^2): 100%
Growth inhibition rate, Pre-emergence treatment, Setaria glauca (L.) Beauv. ([3]; dose 7.5 g a.i./hm^2): 20%
Growth inhibition rate, Pre-emergence treatment, Setaria glauca (L.) Beauv. ([3]; dose 15 g a.i./hm^2): 35%
Growth inhibition rate, Pre-emergence treatment, Setaria glauca (L.) Beauv. ([3]; dose 37.5 g a.i./hm^2): 90%
Growth inhibition rate, Pre-emergence treatment, Setaria glauca (L.) Beauv. ([3]; dose 150 g a.i./hm^2): 98%
Growth inhibition rate, Pre-emergence treatment, Setaria glauca (L.) Beauv. ([3]; dose 600 g a.i./hm^2): 100%
Growth inhibition rate, Post-emergence treatment, Zinnia elegans Jacq. (Zinnia elegans Jacq.; dose 7.5 g a.i./hm^2): 98%
Growth inhibition rate, Post-emergence treatment, Zinnia elegans Jacq. (Zinnia elegans Jacq.; dose 15 g a.i./hm^2): 100%
Growth inhibition rate, Post-emergence treatment, Zinnia elegans Jacq. (Zinnia elegans Jacq.; dose 37.5 g a.i./hm^2): 100%
Growth inhibition rate, Post-emergence treatment, Zinnia elegans Jacq. (Zinnia elegans Jacq.; dose 150 g a.i./hm^2): 100%
Growth inhibition rate, Post-emergence treatment, Zinnia elegans Jacq. (Zinnia elegans Jacq.; dose 600 g a.i./hm^2): 100%
Growth inhibition rate, Pre-emergence treatment, Zinnia elegans Jacq. (Zinnia elegans Jacq.; dose 7.5 g a.i./hm^2): 0%
Growth inhibition rate, Pre-emergence treatment, Zinnia elegans Jacq. (Zinnia elegans Jacq.; dose 15 g a.i./hm^2): 25%
Growth inhibition rate, Pre-emergence treatment, Zinnia elegans Jacq. (Zinnia elegans Jacq.; dose 37.5 g a.i./hm^2): 50%
Growth inhibition rate, Pre-emergence treatment, Zinnia elegans Jacq. (Zinnia elegans Jacq.; dose 150 g a.i./hm^2): 100%
Growth inhibition rate, Pre-emergence treatment, Zinnia elegans Jacq. (Zinnia elegans Jacq.; dose 600 g a.i./hm^2): 100%
pre-emergence and post-emergence herbicidal activity against broad-leaf weeds and grass weeds [4]: good
Crop safety, maize (maize): good safety
Crop safety, rice (rice): good safety
Crop safety, wheat (wheat): good safety
